The results in this text go back to US9879043B1, “Synthesis of non-natural cofactor analogs of S-adenosyl-L-methionine using methionine adenosyltransferase” (University of Kentucky Research Foundation, priority 2013, dated 2018).

SMILES strings stand for the structures.

The first assay concerns the target T1, Sulfolobus solfataricus MAT (sMAT) (Saccharolobus solfataricus, UniProt Q980S9).
T1 sequence (Q980S9 1-404): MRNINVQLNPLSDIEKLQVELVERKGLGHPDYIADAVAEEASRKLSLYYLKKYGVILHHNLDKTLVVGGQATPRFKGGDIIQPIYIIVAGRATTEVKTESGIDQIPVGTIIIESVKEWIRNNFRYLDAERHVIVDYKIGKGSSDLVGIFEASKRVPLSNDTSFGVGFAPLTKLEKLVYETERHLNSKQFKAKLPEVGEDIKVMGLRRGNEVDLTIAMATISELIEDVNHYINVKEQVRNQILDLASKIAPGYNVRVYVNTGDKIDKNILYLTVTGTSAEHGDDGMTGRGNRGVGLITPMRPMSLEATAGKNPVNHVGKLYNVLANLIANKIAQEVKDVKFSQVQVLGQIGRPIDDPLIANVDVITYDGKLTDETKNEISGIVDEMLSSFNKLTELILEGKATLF
Experiment: not given
The format is biochemical. To be noted: 2 mM analog, 1 mM ATP, 5 μM sMAT, pH 8.0, 4 h at 65° C.; average of two assays. As to the method: In-vitro sMAT assay: In vitro sMAT reactions were conducted in a volume of 50 μl with 2 mM S/Se-alkylated analog, 1 mM ATP and 5 μM purified sMAT in 25 mM Tris buffer pH 8.0, 5 mM MgCl2, 50 mM KCl for 4 h at 65° C. Reactions were quenched by adding an equal volume of methanol followed by centrifugation (10,000×g for 15 min) to remove the precipitated protein and product formation for each reaction was subsequently analyzed by reverse phase HPLC (RP-HPLC) using method described below. For each reaction, percent yield was based upon the integration of species at 254 nm and calculated by dividing the integrated area of product and/or decomposed product by the sum of integrated area of product and/or decomposed product and the remaining substrate. The assays were repeated twice under identical conditions, and Table 4 (and FIG. 17) represents an average value of two assays. The inclusion of adenine and 5′-R-thio-5′-adenosine in these calculations is based upon the established SAM and ATP chemical decomposition pathways which indicate adenine and 5′-R-thio-5′-adenosine to only derive from SAM (not ATP). All putative products were subsequently confirmed by high resolution electrospray ionization (ESI) mass spectra with positive (+) and/or negative (−) mode.
RP-HPLC method: Reactions were quenched by the addition of equal volume of methanol followed by centrifugation at 10,000 g for 15 min to remove precipitated protein before applying on an analytical Varian ProStar HPLC [Luna C18 column, 5 μm, 4.6 mm×250 mm; Phenomenex, Torrance, Calif., USA; gradient of 10% B to 40% B over 15 min, 40% B to 75% B over 5 min (A=10 mM NaH2PO4, 5 mM octane sulfonic acid, pH was adjusted to 3.5 using phosphoric acid; B=acetonitrile) flow rate=1 mL min^−1; A254].
Take `C=CCSCC[C@H](N)C(=O)O` [compound 7, (2S)-2-amino-4-(prop-2-en-1-ylsulfanyl)butanoic acid]: the “Percentage Turn-Over (sMAT)” value was found to be 27%.

Regarding `CC(C)CCSCC[C@H](N)C(=O)O` [compound 18, (2S)-2-amino-4-[(3-methylbutyl)sulfanyl]butanoic acid], the “Percentage Turn-Over (sMAT)” value stood at 36%.

`C#CCSCC[C@H](N)C(=O)O` [compound 4, (2S)-2-amino-4-(prop-2-yn-1-ylsulfanyl)butanoic acid]: the “Percentage Turn-Over (sMAT)” value came out at 36%.

As to `CC(C)CSCC[C@H](N)C(=O)O` [compound 14, (2S)-2-amino-4-[(2-methylpropyl)sulfanyl]butanoic acid], the “Percentage Turn-Over (sMAT)” value is 57%.

Another assay deals with Escherichia coli MAT (eMAT) (Escherichia coli, UniProt P0A817). The assay is described as follows: MAT assay, turnover of S/Se-Met analogs to S(Se)AM analogs (RP-HPLC end point). It counts as biochemical. To be noted: 2 mM Met analog, 1 mM ATP, 5 μM MAT, pH 8, 4 h, 37° C.; average of two assays. How it is done:
Standard uniform assay conditions (2 mM Met analog, 1 mM ATP, 5 μM MAT, 25 mM Tris, 5 mM MgCl2, 50 mM KCl, pH 8, 4 h) were adopted to facilitate this broad assessment. For the thermophilic counterpart (mMAT), reactions were conducted at 65° C., while all other reactions were incubated at 37° C. Production of SAM analogs was determined by an RP-HPLC end point assay to afford complete analysis of the desired SAM analog and/or any corresponding degradation products known to directly derive from the desired SAM analog intermediate. Putative SAM analog and SAM-derived degradative product formation was subsequently confirmed via high-resolution mass spectrometry (HRMS) analysis for all positive reactions (see Table 2).
(§1) To monitor MAT reactions, analytical RP HPLC employed a Luna C18 column (5 μm, 4.6 mm×250 mm; Phenomenex, Torrance, Calif., USA) [gradient of 10% B to 40% B over 15 min, 40% B to 75% B over 5 min (A=10 mM NaH2PO4, 5 mM octane sulfonic acid, pH was adjusted to 3.5 using phosphoric acid; B=acetonitrile) flow rate=1 mL min^−1; A254].
(§2) In vitro MAT reactions were conducted in a volume of 50 μl with 2 mM S/Se-alkylated analog (compounds 2-30), 1 mM ATP and 5 μM purified MAT in 25 mM Tris buffer pH 8.0, 5 mM MgCl2, 50 mM KCl for 4 h. The sMAT and mMAT reactions were conducted at 65° C. while hMATs and eMAT were incubated at 37° C. Reactions were quenched by adding an equal volume of methanol followed by centrifugation (10,000×g for 15 min) to remove the precipitated protein and product formation for each reaction was subsequently analyzed by RP-HPLC using Method D (FIG. 15, first column). For each reaction, percent yield was based upon the integration of species at 254 nm and calculated by dividing the integrated area of product and/or decomposed product by the sum of integrated area of product and/or decomposed product and the remaining substrate. The assays were repeated twice under identical conditions, and Table 2 (and FIG. 5) represents an average value of two assays. The inclusion of adenine and 5′-R-thio-5′-adenosine in these calculations is based upon the established SAM and ATP chemical decomposition pathways which indicate adenine and 5′-R-thio-5′-adenosine to only derive from SAM (not ATP). All putative products were subsequently confirmed by high resolution electrospray ionization (ESI) mass spectra with positive (+) and/or negative (−) mode.
Turning to `C=CCSCC[C@H](N)C(=O)O` [compound 7, (2S)-2-amino-4-(prop-2-en-1-ylsulfanyl)butanoic acid], the “Percentage Turn-over eMAT” value came to 2%.

For the compound `CC(C)CCSCC[C@H](N)C(=O)O` [compound 18, (2S)-2-amino-4-[(3-methylbutyl)sulfanyl]butanoic acid], the “Percentage Turn-over eMAT” value came out at 0%.

For the compound `C#CCSCC[C@H](N)C(=O)O` [compound 4, (2S)-2-amino-4-(prop-2-yn-1-ylsulfanyl)butanoic acid], the “Percentage Turn-over eMAT” value is 2%.

In the case of `CC(C)CSCC[C@H](N)C(=O)O` [compound 14, (2S)-2-amino-4-[(2-methylpropyl)sulfanyl]butanoic acid], the “Percentage Turn-over eMAT” value was determined as 0%.

Another assay concerns the target human MAT I catalytic subunit alpha (hMAT1A) (Homo sapiens, UniProt Q00266). Described as above. To be noted: 2 mM Met analog, 1 mM ATP, 5 μM MAT, pH 8, 4 h, 37° C.; average of two assays. The format is biochemical. As to the method: (§3) Standard uniform assay conditions (2 mM Met analog, 1 mM ATP, 5 μM MAT, 25 mM Tris, 5 mM MgCl2, 50 mM KCl, pH 8, 4 h) were adopted to facilitate this broad assessment. For the thermophilic counterpart (mMAT), reactions were conducted at 65° C., while all other reactions were incubated at 37° C. Production of SAM analogs was determined by an RP-HPLC end point assay to afford complete analysis of the desired SAM analog and/or any corresponding degradation products known to directly derive from the desired SAM analog intermediate.
as §1
as §2, with “The” for “In vitro MAT reactions were conducted in a volume of 50 μl with 2 mM S/Se-alkylated analog (compounds 2-30), 1 mM ATP and 5 μM purified MAT in 25 mM Tris buffer pH 8.0, 5 mM MgCl2, 50 mM KCl for 4 h. The”
In the case of `C=CCSCC[C@H](N)C(=O)O` [compound 7, (2S)-2-amino-4-(prop-2-en-1-ylsulfanyl)butanoic acid], the “Percentage Turn-over hMAT1A” value came to 5%.

With `CC(C)CCSCC[C@H](N)C(=O)O` [compound 18, (2S)-2-amino-4-[(3-methylbutyl)sulfanyl]butanoic acid], the “Percentage Turn-over hMAT1A” value was 0%.

`C#CCSCC[C@H](N)C(=O)O` [compound 4, (2S)-2-amino-4-(prop-2-yn-1-ylsulfanyl)butanoic acid]: the “Percentage Turn-over hMAT1A” value is 2%.

On to `CC(C)CSCC[C@H](N)C(=O)O` [compound 14, (2S)-2-amino-4-[(2-methylpropyl)sulfanyl]butanoic acid], for which the “Percentage Turn-over hMAT1A” value came to 0%.

A further assay addresses human MAT II catalytic alpha subunit alone (hMAT2A) (Homo sapiens, UniProt P31153). The assay is described as above. To be noted: 2 mM Met analog, 1 mM ATP, 5 μM MAT, pH 8, 4 h, 37° C.; average of two assays. It counts as biochemical. As to the method: as §3, §1
as §2, with “The” for “In vitro MAT reactions were conducted in a volume of 50 μl with 2 mM S/Se-alkylated analog (compounds 2-30), 1 mM ATP and 5 μM purified MAT in 25 mM Tris buffer pH 8.0, 5 mM MgCl2, 50 mM KCl for 4 h. The”
Consider `C=CCSCC[C@H](N)C(=O)O` [compound 7, (2S)-2-amino-4-(prop-2-en-1-ylsulfanyl)butanoic acid], for which the “Percentage Turn-over hMAT2A” value was 50%.

Regarding `CC(C)CCSCC[C@H](N)C(=O)O` [compound 18, (2S)-2-amino-4-[(3-methylbutyl)sulfanyl]butanoic acid], the “Percentage Turn-over hMAT2A” value is on record as 0%.

In the case of `C#CCSCC[C@H](N)C(=O)O` [compound 4, (2S)-2-amino-4-(prop-2-yn-1-ylsulfanyl)butanoic acid], the “Percentage Turn-over hMAT2A” value was 6%.

For the compound `CC(C)CSCC[C@H](N)C(=O)O` [compound 14, (2S)-2-amino-4-[(2-methylpropyl)sulfanyl]butanoic acid], the “Percentage Turn-over hMAT2A” value came out at 0%.

A further assay has as its target human MAT II catalytic alpha and regulatory beta subunit (hMAT2) (Homo sapiens, UniProt P31153). Described as above. The following applies: 2 mM Met analog, 1 mM ATP, 5 μM MAT, pH 8, 4 h, 37° C.; average of two assays. The format is biochemical. As to the method:
as §3, §1
as §2, with “The” for “In vitro MAT reactions were conducted in a volume of 50 μl with 2 mM S/Se-alkylated analog (compounds 2-30), 1 mM ATP and 5 μM purified MAT in 25 mM Tris buffer pH 8.0, 5 mM MgCl2, 50 mM KCl for 4 h. The”
With `C=CCSCC[C@H](N)C(=O)O` [compound 7, (2S)-2-amino-4-(prop-2-en-1-ylsulfanyl)butanoic acid], the “Percentage Turn-over hMAT2” value came out at 52%.

For the compound `CC(C)CCSCC[C@H](N)C(=O)O` [compound 18, (2S)-2-amino-4-[(3-methylbutyl)sulfanyl]butanoic acid], the “Percentage Turn-over hMAT2” value is recorded as 0%.

`C#CCSCC[C@H](N)C(=O)O` [compound 4, (2S)-2-amino-4-(prop-2-yn-1-ylsulfanyl)butanoic acid]: the “Percentage Turn-over hMAT2” value was 20%.

With `CC(C)CSCC[C@H](N)C(=O)O` [compound 14, (2S)-2-amino-4-[(2-methylpropyl)sulfanyl]butanoic acid], the “Percentage Turn-over hMAT2” value is on record as 0%.

A further assay deals with T2, Methanocaldococcus jannaschii MAT (mMAT) (Methanocaldococcus jannaschii, UniProt Q58605).
T2 sequence (Q58605 1-406): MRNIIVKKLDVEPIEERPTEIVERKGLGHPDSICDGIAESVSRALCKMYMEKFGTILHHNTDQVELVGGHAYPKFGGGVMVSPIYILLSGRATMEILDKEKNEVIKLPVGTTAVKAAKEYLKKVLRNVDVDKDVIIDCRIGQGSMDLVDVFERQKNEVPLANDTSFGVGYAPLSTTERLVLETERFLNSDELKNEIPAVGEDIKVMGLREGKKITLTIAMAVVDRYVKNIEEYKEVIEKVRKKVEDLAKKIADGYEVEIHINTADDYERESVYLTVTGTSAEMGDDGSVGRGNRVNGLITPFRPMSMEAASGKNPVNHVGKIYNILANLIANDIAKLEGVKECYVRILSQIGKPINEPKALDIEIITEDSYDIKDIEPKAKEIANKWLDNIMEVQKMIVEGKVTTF
Experiment: not given
The format is biochemical. To be noted: 2 mM Met analog, 1 mM ATP, 5 μM MAT, pH 8, 4 h, 65° C.; average of two assays. How it is done:
as §3, §1
as §2, with “The” for “In vitro MAT reactions were conducted in a volume of 50 μl with 2 mM S/Se-alkylated analog (compounds 2-30), 1 mM ATP and 5 μM purified MAT in 25 mM Tris buffer pH 8.0, 5 mM MgCl2, 50 mM KCl for 4 h. The”
For `C=CCSCC[C@H](N)C(=O)O` [compound 7, (2S)-2-amino-4-(prop-2-en-1-ylsulfanyl)butanoic acid], the “Percentage Turn-over mMAT” value was found to be 16%.

As to `CC(C)CCSCC[C@H](N)C(=O)O` [compound 18, (2S)-2-amino-4-[(3-methylbutyl)sulfanyl]butanoic acid], the “Percentage Turn-over mMAT” value is 1%.

For `C#CCSCC[C@H](N)C(=O)O` [compound 4, (2S)-2-amino-4-(prop-2-yn-1-ylsulfanyl)butanoic acid], the “Percentage Turn-over mMAT” value turned out to be 6%.

For the compound `CC(C)CSCC[C@H](N)C(=O)O` [compound 14, (2S)-2-amino-4-[(2-methylpropyl)sulfanyl]butanoic acid], the “Percentage Turn-over mMAT” value was determined as 1%.
